Read-outs that look alike come from different tables or passages of the source.
How the values were obtained:
[1] = Log P by HPLC on reversed phase columns (EEC directive 79/831 Annex V.A8); type: physicochemical; conditions: reversed phase HPLC column, LC-UV
Protocol: Measurement of Log P values was performed according to EEC directive 79/831 Annex V.A8 by HPLC (High Performance Liquid Chromatography) on reversed phase columns with the following methods: • ^[a] Log P value is determined by measurement of LC-UV, in an acidic range, with 0.1% formic acid in water and acetonitrile as eluent (linear gradient from 10% acetonitrile to 95% acetonitrile). • ^[b] Log P value is determined by measurement of LC-UV, in a neutral range, with 0.001 molar ammonium acetate solution in water and acetonitrile as eluent (linear gradient from 10% acetonitrile to 95% acetonitrile). […] Lambda-max-values were determined using UV-spectra from 200 nm to 400 nm and the peak values of the chromatographic signals.

[2] = Photolysis stability test; type: physicochemical; conditions: dried film in MTP, irradiated at 30° C. and 480 W/m^2 (SUNTEST), first order degradation assumed
Protocol: The stability towards photolysis of the phenylamidines described in the prior art is good but an improved stability towards photolysis may be an advantage as it could offer a longer lasting efficacy when applied to plants by foliar application. The improved stability towards photolysis was proven by a […] stability test as described below: To produce a suitable preparation of active compound for the photolysis stability test, a 1000 ppm stock solution (1 mg/mL) of active compound in acetonitrile is prepared. Aliquots of […] of this stock solution are pipetted in three wells of a Bio-one microtiter plate (MTP) UVStar 96 (Fa. Greiner, Art. No. 655801). The MTP is dried overnight in the dark and then irradiated at 30° C. and 480 W/m^2 with a UV irradiation device SUNTEST XLS+ or SUNTEST CPS (Fa. Atlas). The amount A of the active compound is analyzed by HPLC (UV-peak areas at 210 nm) at five points in time t: 0 h, 2 h, 4 h, 6 h, 24 h by using the following method: 200 μL acetonitrile is added in the respective well of the MTP and the MTP is sealed with a Bio-one sealing foil, viewseal 80/140 mm (Fa. Greiner, Art. No. 676070). The MTPs are sonicated for 3 minutes and analysed by HPLC. The half-life time (T1/2) of each active compound is calculated via linear regression by using the following equations (first order degradation assumed): […]

[3] = Hydrolysis stability test in homogeneous aqueous solution; type: physicochemical; conditions: 50° C., 24 hours, first order degradation assumed
Protocol: To produce a suitable preparation of active compound for the hydrolysis stability test, a 1000 ppm stock solution (1 mg/mL) of active compound in acetonitrile is prepared. Three aliquots of […] are pipetted into HPLC vials and diluted with 750 μL acetonitrile. In each vial 850 μL of the appropriate buffer solution (pH4, pH7 and pH9, CertiPUR, Fa. Merck) is added. The buffer containing HPLC vials are incubated in a heated sample tray at 50° C. for 24 hours. The amount A of the active compound is analyzed by HPLC (UV-peak areas at 210 nm) at eight points in time t: 0 min, 140 min, 350 min, 560 min, 770 min, 980 min, 1190 min, 1400 min. The half-life time (T1/2) of each active compound is calculated via linear regression by using the following equations (first order degradation assumed): [formula] [formula]

soy bean plants = experiment: Plant compatibility test using soy bean plants; type: in vivo; conditions: soy bean young plants sprayed at 500 ppm, evaluated 6 days after application; 0% no damages, 100% totally damaged
Protocol: [table] To produce a suitable preparation of active compound, 1 part by weight of active compound is mixed with the stated amounts of solvent and emulsifier, and the concentrate is diluted with water to the desired concentration. Young plants are sprayed with the preparation of active compound at the stated application rate. The plants are then placed in a greenhouse at approximately 21° C. and a relative atmospheric humidity of approximately 80%. The test is evaluated 6 days after application and comprises plant damages like leaf deformation, chlorosis, necrosis, shoot damage or stunting. 0% means no damages are observed, while 100% means that the plants are totally damaged.

[4] = acidic range, 0.1% formic acid in water and acetonitrile as eluent, read-out: LogP [a]
[5] = neutral range, 0.001 molar ammonium acetate solution in water and acetonitrile as eluent, read-out: LogP [b]

| Compound | chromatographic logP [1, 4] | half-life [2] [h] | half-life at 59 µg/mL ([3]; buffer pH 7/acetonitrile, read-out: T1/2 (pH 7) (converted)) [h] | half-life at 59 µg/mL ([3]; buffer pH 9/acetonitrile, read-out: T1/2 (pH 9) (converted)) [h] | Necrosis in % (soy bean plants) [%] | chromatographic logP [1, 5] |
| --- | --- | --- | --- | --- | --- | --- |
| Cc1cc([N+](=O)[O-])c(Br)cc1Oc1ccccc1 [VI-02, 1-bromo-4-methyl-2-nitro-5-phenoxybenzene] | 4.51 |  |  |  |  |  |
| CCN(C)/C=N/c1cc(C)c(Oc2ccccc2)cc1Cl [Example I-01, N′-(2-chloro-5-methyl-4-phenoxyphenyl)-N-ethyl-N-methylimidoformamide] | 1.6 | > 200 | 45 | 40 | 50 |  |
| CCN(C)/C=N/c1cc(C)c(Oc2ccccc2)cc1C [Compound no. 1 known from WO2008/110313, reference compound] |  |  |  |  | 90 |  |
| CCN(C)C=Nc1cc(C)c(Oc2ccccc2)cc1F [Example I-03, N-ethyl-N′-(2-fluoro-5-methyl-4-phenoxyphenyl)-N-methylimidoformamide] | 1.55 |  |  |  |  | 3.97 |
| Cc1cc(N)c(Br)cc1Oc1ccccc1 [VIII-02, 2-bromo-5-methyl-4-phenoxyaniline] | 3.66 |  |  |  |  | 3.65 |
| CCN(C)/C=N/c1cc(C)c(Oc2ccccc2)cc1Br [Example I-02, N′-(2-bromo-5-methyl-4-phenoxyphenyl)-N-ethyl-N-methylimidoformamide] | 1.61 |  |  |  | 10 | 4.67 |
